Counter-ions that a name gives are not always drawn.
What was measured:
[1] = target: T1, human κ-opioid receptor (OPRK1) (Homo sapiens, UniProt P41145); experiment: Forskolin-induced cAMP accumulation assay, KOR antagonist mode; details: for KOR Antagonist %Imax ± SEM: versus EC90 of U50488H, Imax normalized to nor-BNI
[2] = target: T2, human μ-opioid receptor (OPRM1) (Homo sapiens, UniProt P35372); experiment: cell-based; assay type: cell-based; details: for EC50: MOR Agonist EC50 ± SEM; for Emax: read-out: MOR Agonist %Emax ± SEM
T2 construct: host or cells: cAMP Hunter CHO-K1
T2 sequence (P35372 whole entry): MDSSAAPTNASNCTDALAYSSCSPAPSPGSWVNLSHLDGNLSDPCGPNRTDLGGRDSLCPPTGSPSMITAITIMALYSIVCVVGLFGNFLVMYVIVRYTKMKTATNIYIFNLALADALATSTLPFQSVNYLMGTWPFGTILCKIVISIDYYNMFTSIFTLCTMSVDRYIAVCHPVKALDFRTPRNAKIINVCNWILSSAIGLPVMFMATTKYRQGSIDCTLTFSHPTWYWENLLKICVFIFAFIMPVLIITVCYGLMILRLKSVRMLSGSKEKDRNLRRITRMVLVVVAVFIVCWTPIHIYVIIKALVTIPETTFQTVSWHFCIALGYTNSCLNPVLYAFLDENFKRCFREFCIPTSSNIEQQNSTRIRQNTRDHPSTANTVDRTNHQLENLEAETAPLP

[3] = target: T1, human κ-opioid receptor (OPRK1); experiment: Forskolin-induced cAMP accumulation assay, KOR agonist mode; details: for Emax: CHO-K1, read-out: KOR Agonist %Emax ± SEM
[4] = target: T3, human δ-opioid receptor (OPRD1) (Homo sapiens, UniProt P41143); experiment: Forskolin-induced cAMP accumulation assay, DOR agonist mode; details: for Emax: CHO-K1, read-out: DOR Agonist %Emax ± SEM
T3 sequence (P41143 whole entry): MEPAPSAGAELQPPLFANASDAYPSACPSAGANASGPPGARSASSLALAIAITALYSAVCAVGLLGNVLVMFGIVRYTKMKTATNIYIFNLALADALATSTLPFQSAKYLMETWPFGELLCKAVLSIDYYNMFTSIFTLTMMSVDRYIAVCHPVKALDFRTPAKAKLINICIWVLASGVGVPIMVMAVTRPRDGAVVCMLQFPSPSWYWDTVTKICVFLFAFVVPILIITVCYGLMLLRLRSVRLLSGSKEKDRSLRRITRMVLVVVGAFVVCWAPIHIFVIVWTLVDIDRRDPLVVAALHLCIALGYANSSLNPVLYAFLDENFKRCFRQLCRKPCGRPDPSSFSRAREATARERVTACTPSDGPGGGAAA

[5] = target: T3, human δ-opioid receptor (OPRD1); experiment: Forskolin-induced cAMP accumulation assay, DOR antagonist mode

T1 sequence (P41145 whole entry): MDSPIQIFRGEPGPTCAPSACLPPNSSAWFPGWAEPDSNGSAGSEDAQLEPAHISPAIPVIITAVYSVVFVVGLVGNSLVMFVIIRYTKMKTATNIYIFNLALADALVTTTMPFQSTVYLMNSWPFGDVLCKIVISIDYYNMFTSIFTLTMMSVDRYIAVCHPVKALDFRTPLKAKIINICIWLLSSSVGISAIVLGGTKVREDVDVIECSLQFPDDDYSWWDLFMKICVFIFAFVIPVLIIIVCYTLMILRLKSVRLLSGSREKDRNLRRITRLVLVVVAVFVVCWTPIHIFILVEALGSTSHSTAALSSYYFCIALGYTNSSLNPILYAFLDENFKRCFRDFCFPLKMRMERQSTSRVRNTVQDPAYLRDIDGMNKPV

Structure (SMILES)	melting point	IC50 [1] [nM]	EC50 [2] [nM]	Emax [2] [%]	EC50 [3] [nM]	EC50 [4] [nM]	Emax [4] [%]	KOR Antagonist %Imax ± SEM [1] [%]	Emax [3] [%]	MOR agonist potency / efficacy in words [2]	IC50 [5] [nM]
CC1C2Cc3ccc(O)cc3C1(C)CCN2CCc1ccc([N+](=O)[O-])cc1 (as salt: HCl) [Compound 3, (1R,5R,9R)-6,11-Dimethyl-3-(4-nitrophenethyl)-1,2,3,4,5,6-hexahydro-2,6-methanobenzo[d]azocin-8-ol]	273 to 274 °C (dec.)										
C[C@H]1[C@H]2Cc3ccc(O)cc3[C@]1(C)CCN2CCc1c[nH]c2ccccc12 [Compound 26, (1R,5R,9R)-3-(2-(1H-Indol-3-yl)ethyl)-6,11-dimethyl-1,2,3,4,5,6-hexahydro-2,6-methanobenzo[d]azocin-8-ol]		> 10000	12	102	> 10000	343 ± 35	91				
CC1C2Cc3ccc(O)cc3C1(C)CCN2CCc1c(Cl)cccc1Cl [Compound 22, (1R,5R,9R)-6,11-Dimethyl-3-(2,6-dichlorophenethyl)-1,2,3,4,5,6-hexahydro-2,6-methanobenzo[d]azocin-8-ol]		65 ± 24	4	99	> 10000	59 ± 25	78	87 ± 7			
CC1C2Cc3ccc(O)cc3C1(C)CCN2CCc1cccc(Cl)c1 [Compound 16, (1R,5R,9R)-6,11-Dimethyl-3-(3-chlorophenethyl)-1,2,3,4,5,6-hexahydro-2,6-methanobenzo[d]azocin-8-ol]		111 ± 43	13	95	> 10000	93 ± 25	64	108 ± 10			
C[C@H]1[C@H]2Cc3ccc(O)cc3[C@]1(C)CCN2CCc1ccc(F)cc1 [Compound 6, (2R,6R,11R)-6,11-Dimethyl-3-(4-fluorophenethyl)-1,2,3,4,5,6-hexahydro-2,6-methanobenzo[d]azocin-8-ol]		368 ± 92	1.8	100	7 ± 3	12 ± 3	73	71 ± 2	34		
CC1C2Cc3ccc(O)cc3C1(C)CCN2CCc1ccccc1[N+](=O)[O-] [Compound 5, (1R,5R,9R)-6,11-Dimethyl-3-(2-nitrophenethyl)-1,2,3,4,5,6-hexahydro-2,6-methanobenzo[d]azocin-8-ol]		717 ± 132	2.7	101	16 ± 4	37 ± 6	73	89 ± 5	23		
CC1C2Cc3ccc(O)cc3C1(C)CCN2CCc1ccccc1 [Compound 23, (1R,5R,9R)-6,11-Dimethyl-3-(phenethyl)-1,2,3,4,5,6-hexahydro-2,6-methanobenzo[d]azocin-8-ol]		281 ± 94	0.27	101	3.4 ± 0.4	4 ± 1	85	81 ± 5	25		
CC1c2ccc(O)cc2[C@]2(C)CCN(CCc3ccccc3)[C@H]1[C@@H]2C (single isomer, unassigned; (-)) [(−)-39]		731 ± 362	1.2	102	20.7 ± 6.1	12.6 ± 3.9	91	57 ± 5	38		
CC1C2Cc3ccc(O)cc3C1(C)CCN2CCc1cccc(Br)c1 [Compound 13, (1R,5R,9R)-6,11-Dimethyl-3-(3-bromophenethyl)-1,2,3,4,5,6-hexahydro-2,6-methanobenzo[d]azocin-8-ol]		90 ± 37	18	78	> 10000	110 ± 24	51	99 ± 2			
C[C@H]1[C@H]2Cc3ccc(O)cc3[C@]1(C)CCN2CCC1CCN(C)CC1 [Compound 28, (1R,5R,9R)-6,11-Dimethyl-3-(2-(1-methylpiperidin-4-yl)ethyl)-1,2,3,4,5,6-hexahydro-2,6-methanobenzo[d]azocin-8-ol]		> 10000	> 10000		0.05 ± 0.02	> 10000			15	little or no potency	> 10000
CC1c2ccc(O)cc2[C@@]2(C)CCN(CCc3ccccc3)[C@@H]1[C@H]2C (single isomer, unassigned; (+)) [(+)-39]		> 10000	21.7	103	953 ± 120	1340 ± 389	94		37		
CC1C2Cc3ccc(O)cc3C1(C)CCN2CCc1cccc(F)c1 [Compound 7, (1R,5R,9R)-6,11-Dimethyl-3-(3-fluorophenethyl)-1,2,3,4,5,6-hexahydro-2,6-methanobenzo[d]azocin-8-ol]		274 ± 83	0.6	100	> 10000	11 ± 4	86	87 ± 2			
CC1C2Cc3ccc(O)cc3C1(C)CCN2CCc1ccccc1Cl [Compound 17, (1R,5R,9R)-6,11-Dimethyl-3-(2-chlorophenethyl)-1,2,3,4,5,6-hexahydro-2,6-methanobenzo[d]azocin-8-ol]			1.4	101	8 ± 1	15 ± 4	87		57		

Reference: paper PMC10708259 (Molecules, 2023)
